Measured values as given in patent US20240299385A1 (ReWind Therapeutics NV, priority 2021, published 2024).

Target: T1, human GPR17 receptor (Homo sapiens, UniProt Q13304)
T1 construct: host or cells: HEK-293
Assay: Calcium mobilization functional assay (Fluo-8, FLIPR TETRA) in HEK-293 hGPR17 (Gα-q assay)
Assay type: cell-based
Conditions: antagonism of MDL29,951 (~EC80) induced Ca2+ signal; cell line (HEK-293 hGPR17 or HEK-293 Suchi5 hGPR17) not given
How it was run: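 Fluo-8-loaded HEK-293 hGPR17 cells (60 min dye loading, room temperature) were preincubated with compound for twenty minutes, then challenged with agonist MDL29,951 at ~EC80, 500 nM. Intracellular calcium release via Gα-q was recorded as FLIPR fluorescence for a further 2 minutes; compounds tested in duplicate.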

T1 sequence (Q13304 whole entry): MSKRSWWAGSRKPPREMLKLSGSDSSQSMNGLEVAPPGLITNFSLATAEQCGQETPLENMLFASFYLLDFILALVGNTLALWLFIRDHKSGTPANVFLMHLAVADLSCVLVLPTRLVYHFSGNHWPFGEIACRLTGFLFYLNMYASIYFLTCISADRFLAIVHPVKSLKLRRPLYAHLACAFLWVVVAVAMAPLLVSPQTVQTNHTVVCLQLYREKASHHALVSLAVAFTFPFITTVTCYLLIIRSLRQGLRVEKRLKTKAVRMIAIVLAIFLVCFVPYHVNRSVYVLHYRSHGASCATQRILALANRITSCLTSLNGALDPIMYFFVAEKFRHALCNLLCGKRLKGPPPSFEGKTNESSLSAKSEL

IC50, < 500 nM:
O=S(=O)(Nc1cc(F)c(OC(F)F)cc1F)c1c[nH]c(-c2ccoc2)c1 [Cpd 474, N-[4-(difluoromethoxy)-2,5-difluorophenyl]-5-(furan-3-yl)-1H-pyrrole-3-sulfonamide]
O=S(=O)(Nc1cc(F)c(OC(F)F)cc1F)c1c[nH]c(-c2cccs2)c1 [Cpd 475, N-[4-(difluoromethoxy)-2,5-difluorophenyl]-5-thiophen-2-yl-1H-pyrrole-3-sulfonamide]
O=S(=O)(Nc1cc(F)c(OC(F)F)cc1F)c1c[nH]c(-c2ccsc2)c1 [Cpd 476, N-[4-(difluoromethoxy)-2,5-difluorophenyl]-5-thiophen-3-yl-1H-pyrrole-3-sulfonamide]
O=S(=O)(Nc1cc(F)c(Br)cc1F)c1c[nH]c(-c2ccoc2)c1 [Cpd 477, N-(4-bromo-2,5-difluorophenyl)-5-(furan-3-yl)-1H-pyrrole-3-sulfonamide]
O=S(=O)(Nc1cc(F)c(Br)cc1F)c1c[nH]c(-c2cccs2)c1 [Cpd 478, N-(4-bromo-2,5-difluorophenyl)-5-(thiophen-2-yl)-1H-pyrrole-3-sulfonamide]
O=S(=O)(Nc1cc(F)c(Br)cc1F)c1c[nH]c(-c2ccsc2)c1 [Cpd 479, N-(4-bromo-2,5-difluorophenyl)-5-thiophen-3-yl-1H-pyrrole-3-sulfonamide]
COc1cccc(Cc2c[nH]cc2S(=O)(=O)Nc2cc(F)c(OC(F)F)cc2F)c1 [Cpd 480, N-[4-(difluoromethoxy)-2,5-difluorophenyl]-4-[(3-methoxyphenyl)methyl]-1H-pyrrole-3-sulfonamide]
O=S(=O)(Nc1cc(F)c(OC(F)F)cc1F)c1c[nH]cc1Cc1ccccc1F [Cpd 484, N-[4-(difluoromethoxy)-2,5-difluorophenyl]-4-[(2-fluorophenyl)methyl]-1H-pyrrole-3-sulfonamide]
N#Cc1ccc(NS(=O)(=O)c2c[nH]c(-c3c(F)cc(F)cc3F)c2)c(F)c1 [Cpd 489, N-(4-cyano-2-fluorophenyl)-5-(2,4,6-trifluorophenyl)-1H-pyrrole-3-sulfonamide]
O=S(=O)(Nc1nc(F)c(OCCF)cc1F)c1c[nH]c(-c2ccccc2)c1 [Cpd 494, N-[3,6-difluoro-5-(2-fluoroethoxy)pyridin-2-yl]-5-phenyl-1H-pyrrole-3-sulfonamide]
N#Cc1cc(F)c(NS(=O)(=O)c2c[nH]cc2-c2cccc(F)c2)cc1F [Cpd 497, N-(4-cyano-2,5-difluorophenyl)-4-(3-fluorophenyl)-1H-pyrrole-3-sulfonamide]
N#Cc1ccc(NS(=O)(=O)c2c[nH]c(-c3cccc(F)n3)c2)c(F)c1 [Cpd 502, N-(4-cyano-2-fluorophenyl)-5-(6-fluoropyridin-2-yl)-1H-pyrrole-3-sulfonamide]

IC50, 5000 to 50000 nM:
CC(=O)c1cccc(Cc2c[nH]cc2S(=O)(=O)Nc2ccc(C#N)cc2F)c1 [Cpd 490, 4-[(3-acetylphenyl)methyl]-N-(4-cyano-2-fluorophenyl)-1H-pyrrole-3-sulfonamide]
N#Cc1ccc(NS(=O)(=O)c2c[nH]c(Cc3ccccn3)c2)c(F)c1 [Cpd 491, N-(4-cyano-2-fluorophenyl)-5-(pyridin-2-ylmethyl)-1H-pyrrole-3-sulfonamide]
N#Cc1ccc(NS(=O)(=O)c2c[nH]c(-c3ccc(Cl)cn3)c2)c(F)c1 [Cpd 499, 5-(5-chloropyridin-2-yl)-N-(4-cyano-2-fluorophenyl)-1H-pyrrole-3-sulfonamide]
Cc1ccc(-c2cc(S(=O)(=O)Nc3ccc(C#N)cc3F)c[nH]2)nc1 [Cpd 500, N-(4-cyano-2-fluorophenyl)-5-(5-methylpyridin-2-yl)-1H-pyrrole-3-sulfonamide]

IC50, 500 to 5000 nM:
Cc1cc(NS(=O)(=O)c2c[nH]c(-c3cc(Cl)c(F)cc3F)c2)c(F)cc1C#N [Cpd 471, 5-(5-chloro-2,4-difluorophenyl)-N-(4-cyano-2-fluoro-5-methylphenyl)-1H-pyrrole-3-sulfonamide]
N#CCOc1cnc(NS(=O)(=O)c2c[nH]c(-c3ccccc3)c2)c(F)c1 [Cpd 472, N-[5-(cyanomethoxy)-3-fluoropyridin-2-yl]-5-phenyl-1H-pyrrole-3-sulfonamide]
O=S(=O)(Nc1cc(F)c(OCC(F)F)cc1F)c1c[nH]c(-c2ccccn2)c1 [Cpd 473, N-[4-(2,2-difluoroethoxy)-2,5-difluorophenyl]-5-pyridin-2-yl-1H-pyrrole-3-sulfonamide]
O=S(=O)(Nc1cc(F)c(C(F)(F)F)cc1F)c1c[nH]cc1Cc1cccc(F)c1 [Cpd 481, N-[2,5-difluoro-4-(trifluoromethyl)phenyl]-4-[(3-fluorophenyl)methyl]-1H-pyrrole-3-sulfonamide]
COc1cccc(Cc2c[nH]cc2S(=O)(=O)Nc2cc(F)c(C(F)(F)F)cc2F)c1 [Cpd 482, N-[2,5-difluoro-4-(trifluoromethyl)phenyl]-4-[(3-methoxyphenyl)methyl]-1H-pyrrole-3-sulfonamide]
O=S(=O)(Nc1cc(F)c(OC(F)F)cc1F)c1c[nH]cc1Cc1cccc(OC(F)F)c1 [Cpd 483, N-[4-(difluoromethoxy)-2,5-difluorophenyl]-4-[[3-(difluoromethoxy)phenyl]methyl]-1H-pyrrole-3-sulfonamide]
O=S(=O)(Nc1cc(F)c(OC(F)F)cc1F)c1c[nH]cc1Cc1ccc(F)cc1 [Cpd 485, N-[4-(difluoromethoxy)-2,5-difluorophenyl]-4-[(4-fluorophenyl)methyl]-1H-pyrrole-3-sulfonamide]
Cc1ccc(Cc2c[nH]cc2S(=O)(=O)Nc2ccc(C#N)cc2F)s1 [Cpd 486, N-(4-cyano-2-fluorophenyl)-4-[(5-methylthiophen-2-yl)methyl]-1H-pyrrole-3-sulfonamide]
COc1ccc(Cl)cc1-c1cc(S(=O)(=O)Nc2ccc(C#N)cc2F)c[nH]1 [Cpd 488, 5-(5-chloro-2-methoxyphenyl)-N-(4-cyano-2-fluorophenyl)-1H-pyrrole-3-sulfonamide]
N#Cc1cc(F)c(NS(=O)(=O)c2c[nH]c(-c3c(F)cc(F)cc3F)c2)cc1Cl [Cpd 492, N-(5-chloro-4-cyano-2-fluorophenyl)-5-(2,4,6-trifluorophenyl)-1H-pyrrole-3-sulfonamide]
Cc1cc(NS(=O)(=O)c2c[nH]c(-c3c(F)cc(F)cc3F)c2)c(F)cc1C#N [Cpd 495, N-(4-cyano-2-fluoro-5-methylphenyl)-5-(2,4,6-trifluorophenyl)-1H-pyrrole-3-sulfonamide]
O=S(=O)(Nc1cc(F)c(OCC(F)F)cc1F)c1c[nH]cc1-c1cccc(F)c1 [Cpd 496, N-[4-(2,2-difluoroethoxy)-2,5-difluorophenyl]-4-(3-fluorophenyl)-1H-pyrrole-3-sulfonamide]
Cc1nc(-c2cc(S(=O)(=O)Nc3ccc(C#N)cc3F)c[nH]2)ccc1F [Cpd 498, N-(4-cyano-2-fluorophenyl)-5-(5-fluoro-6-methylpyridin-2-yl)-1H-pyrrole-3-sulfonamide]
O=S(=O)(Nc1nc(F)c(OCCF)cc1F)c1c[nH]cc1Cc1ccccc1 [Cpd 501, 4-benzyl-N-[3,6-difluoro-5-(2-fluoroethoxy)pyridin-2-yl]-1H-pyrrole-3-sulfonamide]
